Assay results: patent US20250195521A1 (Revolution Medicines, Inc., priority 2020, published 2025)

What was measured:
[1] = biological target: NRAS G12C binding to BRAF RBD (Homo sapiens (Human), UniProt P01111+P62937, G12C); assay: Ras-Raf disruption/FRET/MOA assay, NRAS G12C; assay type: biochemical
Method in brief: (§1)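 Cpd 10-pt 3-fold dilution, top 30 μM final; Ras/CypA/BRAF RBD mix 3 h, 25° C. Add anti-His Eu-W1024 10 nM + anti-GST APC 50 nM final, 1.5 h. Readout TR-FRET ratio decrease vs DMSO → IC50.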

[2] = biological target: KRAS Q61H binding to BRAF RBD (Homo sapiens (Human), UniProt P01116+P62937, Q61H); assay: Ras-Raf disruption/FRET/MOA assay, KRAS Q61H; assay type: biochemical
Chain of KRAS Q61H binding to BRAF RBD (P01116 other isoform, or with tags, fused parts or gaps Q61H): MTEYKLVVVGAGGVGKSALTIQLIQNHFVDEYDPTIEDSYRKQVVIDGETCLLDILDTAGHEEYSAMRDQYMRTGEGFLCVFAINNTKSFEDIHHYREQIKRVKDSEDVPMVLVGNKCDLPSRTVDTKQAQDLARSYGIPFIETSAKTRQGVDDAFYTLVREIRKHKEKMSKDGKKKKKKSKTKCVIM
Chain of KRAS Q61H binding to BRAF RBD (P62937 whole entry, the tested form may be a part): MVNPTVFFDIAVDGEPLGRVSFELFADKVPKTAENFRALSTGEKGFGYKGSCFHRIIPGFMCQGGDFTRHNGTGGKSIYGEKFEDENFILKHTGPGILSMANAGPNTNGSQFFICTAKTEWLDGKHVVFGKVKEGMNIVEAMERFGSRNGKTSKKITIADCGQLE
Text: (§2) Disruption of B-Raf Ras-binding Domain (BRAF^RBD) Interaction with K-Ras by Compounds of the Invention (also called a FRET assay or an MOA assay)
(§3) Note—The following protocol describes a procedure for monitoring disruption of K-Ras G12C(GMP-PNP) binding to BRAF^RBD by a compound of the invention. This protocol may also be executed substituting other Ras proteins or nucleotides.
(§4) The purpose of this biochemical assay was to measure the ability of test compounds to facilitate ternary complex formation between a nucleotide-loaded K-Ras isoform and Cyclophilin A; the resulting ternary complex disrupts binding to a BRAF^RBD construct, inhibiting K-Ras signaling through a RAF effector. Data is reported as IC50 values.
(§5) In assay buffer containing 25 mM HEPES pH 7.3, 0.002% Tween20, 0.1% BSA, 100 mM NaCl and 5 mM MgCl2, tagless Cyclophilin A, His6-K-Ras-GMPPNP, and GST-BRAF^RBD were combined in a 384-well assay plate at final concentrations of 25 μM, 12.5 nM and 50 nM, respectively. Compound was present in plate wells as a 10-point 3-fold dilution series starting at a final concentration of 30 μM. After incubation at 25° C. for 3 hours, a mixture of Anti-His Eu—W1024 and anti-GST allophycocyanin was then added to assay sample wells at final concentrations of 10 nM and 50 nM, respectively, and the reaction incubated for an additional 1.5 hours. […] Compounds that facilitate disruption of a K-Ras: RAF complex were identified as those eliciting a decrease in the TR-FRET ratio relative to DMSO control wells.

NCI-H358 (K-Ras G12C) = assay: CellTiter-Glo cell viability assay, NCI-H358; assay type: cell-based, human; settings: Homo sapiens, NCI-H358, 120 h, 5-day treatment; read-out: H358 Cell Viability assay data (K-Ras G12C, IC50)
Method in brief: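 NCI-H358 (K-Ras G12C) cells treated with compound dispensed directly into plates. CellTiter-Glo luminescence read on day 5 after ~30 min equilibration to room temperature. Signal normalised to DMSO average ×100, then fitted with a four-parameter logistic model.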

[3] = biological target: NRAS WT binding to BRAF RBD (Homo sapiens (Human), UniProt P01111+P62937); assay: Ras-Raf disruption/FRET/MOA assay, NRAS WT; assay type: biochemical
Chain of NRAS WT binding to BRAF RBD (P01111 whole entry): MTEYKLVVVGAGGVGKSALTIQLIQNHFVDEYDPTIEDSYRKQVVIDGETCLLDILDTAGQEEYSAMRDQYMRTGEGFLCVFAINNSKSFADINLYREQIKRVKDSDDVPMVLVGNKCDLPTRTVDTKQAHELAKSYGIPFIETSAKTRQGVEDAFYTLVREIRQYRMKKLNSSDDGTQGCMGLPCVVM
Chain of NRAS WT binding to BRAF RBD (P62937 whole entry): as the sequence (P62937 whole entry, the tested form may be a part) above
Text: as §2, §3, §4, §5

[4] = biological target: NRAS Q61R binding to BRAF RBD (Homo sapiens (Human), UniProt P01111+P62937, Q61R); assay: Ras-Raf disruption/FRET/MOA assay, NRAS Q61R; assay type: biochemical
Chain of NRAS Q61R binding to BRAF RBD (P01111 whole entry Q61R): as the sequence (P01111 whole entry) above, with Q61R counted along it
Chain of NRAS Q61R binding to BRAF RBD (P62937 whole entry): as the sequence (P62937 whole entry, the tested form may be a part) above
Text: as §2, §3, §4, §5

[5] = biological target: KRAS WT binding to BRAF RBD (Homo sapiens (Human), UniProt P01116+P62937); assay: Ras-Raf disruption/FRET/MOA assay, KRAS WT; assay type: biochemical
Chain of KRAS WT binding to BRAF RBD (P01116 other isoform, or with tags, fused parts or gaps): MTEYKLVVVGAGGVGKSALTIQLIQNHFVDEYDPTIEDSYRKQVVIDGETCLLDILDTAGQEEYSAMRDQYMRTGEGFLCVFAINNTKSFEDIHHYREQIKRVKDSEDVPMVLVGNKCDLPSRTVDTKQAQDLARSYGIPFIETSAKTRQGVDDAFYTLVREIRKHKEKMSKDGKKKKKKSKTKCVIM
Chain of KRAS WT binding to BRAF RBD (P62937 whole entry): as the sequence (P62937 whole entry, the tested form may be a part) above
Text: as §2, §3, §4, §5

[6] = biological target: KRAS G12S binding to BRAF RBD (Homo sapiens (Human), UniProt P01116+P62937, G12S); assay: Ras-Raf disruption/FRET/MOA assay, KRAS G12S; assay type: biochemical
Chain of KRAS G12S binding to BRAF RBD (P01116 other isoform, or with tags, fused parts or gaps G12S): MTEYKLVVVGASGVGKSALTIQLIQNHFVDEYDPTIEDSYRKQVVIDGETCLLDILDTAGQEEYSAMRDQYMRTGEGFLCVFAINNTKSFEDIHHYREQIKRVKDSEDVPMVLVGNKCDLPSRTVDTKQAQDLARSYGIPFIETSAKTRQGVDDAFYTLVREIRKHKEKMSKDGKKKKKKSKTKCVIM
Chain of KRAS G12S binding to BRAF RBD (P62937 whole entry): as the sequence (P62937 whole entry, the tested form may be a part) above
Text: as §3, §4
as §5, with “Compound” for “In assay buffer containing 25 mM HEPES pH 7.3, 0.002% Tween20, 0.1% BSA, 100 mM NaCl and 5 mM MgCl2, tagless Cyclophilin A, His6-K-Ras-GMPPNP, and GST-BRAF^RBD were combined in a 384-well assay plate at final concentrations of 25 μM, 12.5 nM and 50 nM, respectively. Compound”

[7] = test system: K-Ras G12C (NCI-H358 cells); assay: Potency assay: pERK in NCI-H358 cells; assay type: cell-based, human; settings: Homo sapiens; NCI-H358 cells, 4 hours; read-out: pERK EC50 (H358 KRAS G12C)
Method in brief: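 Cells plated the day before were exposed for 4 h at 37° C, 5% CO2 to a 10-point, 3-fold DMSO dilution series (10 mM top stock), in duplicate. Phospho-ERK was read by AlphaLISA SureFire Ultra or by In-Cell Western with DRAQ5 DNA stain, and IC50 came from a 4-parameter sigmoidal fit.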

[8] = biological target: K-Ras G12C(GMP-PNP) binding to BRAF RBD (Homo sapiens (Human), UniProt P01116+P62937, G12C); assay: Disruption of BRAF RBD interaction with K-Ras (FRET / MOA assay), K-Ras G12C; assay type: biochemical; settings: read-out: KRAS G12C FRET IC50
Chain of K-Ras G12C(GMP-PNP) binding to BRAF RBD (P01116 other isoform, or with tags, fused parts or gaps G12C): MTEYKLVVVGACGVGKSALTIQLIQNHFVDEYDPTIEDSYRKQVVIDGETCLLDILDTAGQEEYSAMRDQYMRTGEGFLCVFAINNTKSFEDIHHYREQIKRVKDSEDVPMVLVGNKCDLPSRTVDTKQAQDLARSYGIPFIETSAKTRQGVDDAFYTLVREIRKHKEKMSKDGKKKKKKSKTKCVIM
Chain of K-Ras G12C(GMP-PNP) binding to BRAF RBD (P62937 whole entry, canonical isoform): as the sequence (P62937 whole entry, the tested form may be a part) above
Method in brief: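 Incubation of compound (up to 30 μM final, 3-fold steps) with GMP-PNP-type loaded Ras isoform, cyclophilin A and BRAF RBD ran 3 h at 25° C, followed by 1.5 h with detection antibodies. Disruption appears as a reduced TR-FRET ratio compared with DMSO controls, expressed as IC50.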

[9] = biological target: KRAS G12V binding to BRAF RBD (Homo sapiens (Human), UniProt P01116+P62937, G12V); assay: Ras-Raf disruption/FRET/MOA assay, KRAS G12V; assay type: biochemical; settings: read-out: KRAS G12V FRET IC50
Chain of KRAS G12V binding to BRAF RBD (P01116 other isoform, or with tags, fused parts or gaps G12V): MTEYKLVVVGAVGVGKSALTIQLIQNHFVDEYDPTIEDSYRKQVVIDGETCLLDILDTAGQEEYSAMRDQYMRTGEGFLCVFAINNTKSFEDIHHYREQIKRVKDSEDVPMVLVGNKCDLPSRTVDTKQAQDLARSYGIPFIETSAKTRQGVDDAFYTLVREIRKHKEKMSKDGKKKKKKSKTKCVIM
Chain of KRAS G12V binding to BRAF RBD (P62937 whole entry): as the sequence (P62937 whole entry, the tested form may be a part) above
Text: as §3, §4
as §5, with “Compound” for “In assay buffer containing 25 mM HEPES pH 7.3, 0.002% Tween20, 0.1% BSA, 100 mM NaCl and 5 mM MgCl2, tagless Cyclophilin A, His6-K-Ras-GMPPNP, and GST-BRAF^RBD were combined in a 384-well assay plate at final concentrations of 25 μM, 12.5 nM and 50 nM, respectively. Compound”

[10] = biological target: KRAS G13D binding to BRAF RBD (Homo sapiens (Human), UniProt P01116+P62937, G13D); assay: Ras-Raf disruption/FRET/MOA assay, KRAS G13D; assay type: biochemical
Chain of KRAS G13D binding to BRAF RBD (P01116 other isoform, or with tags, fused parts or gaps G13D): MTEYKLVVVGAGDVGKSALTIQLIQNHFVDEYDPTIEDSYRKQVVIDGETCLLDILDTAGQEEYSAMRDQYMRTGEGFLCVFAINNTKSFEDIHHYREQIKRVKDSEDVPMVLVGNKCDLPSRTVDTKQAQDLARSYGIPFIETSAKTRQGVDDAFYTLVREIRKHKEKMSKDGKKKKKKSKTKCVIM
Chain of KRAS G13D binding to BRAF RBD (P62937 whole entry): as the sequence (P62937 whole entry, the tested form may be a part) above
Method in brief: as §1

[11] = biological target: NRAS Q61K binding to BRAF RBD (Homo sapiens (Human), UniProt P01111+P62937, Q61K); assay: Ras-Raf disruption/FRET/MOA assay, NRAS Q61K; assay type: biochemical
Chain of NRAS Q61K binding to BRAF RBD (P01111 whole entry Q61K): as the sequence (P01111 whole entry) above, with Q61K counted along it
Chain of NRAS Q61K binding to BRAF RBD (P62937 whole entry): as the sequence (P62937 whole entry, the tested form may be a part) above
Text: as §2, §3, §4, §5

NRAS Q61R = NRAS Q61R (Homo sapiens (Human), UniProt P01111+P62937, Q61R); assay: Ras-Raf disruption/FRET/MOA assay, NRAS Q61R; assay type: biochemical; settings: read-out: NRAS Q61R FRET data IC50
Chain of NRAS Q61R (P01111 whole entry Q61R, the tested form may be a part): as the sequence (P01111 whole entry) above, with Q61R counted along it
Chain of NRAS Q61R (P62937 whole entry, the tested form may be a part): as the sequence (P62937 whole entry, the tested form may be a part) above
Text: (§6) Disruption of B-Raf Ras-Binding Domain (BRAF^RBD) Interaction with K-Ras by Compounds of the Invention (Also Called a FRET Assay or an MOA Assay)
(§7) Note—The following protocol describes a procedure for monitoring disruption of K-Ras G12C (GMP-PNP) binding to BRAF^RBD by a compound of the invention. This protocol may also be executed substituting other Ras proteins or nucleotides, such as K-Ras G12D and K-Ras G13D.
as §4
as §5, with “12.5 nM,” for “12.5 nM”, “of anti-His” for “of Anti-His”

NRAS WT = NRAS WT (Homo sapiens (Human), UniProt P01111+P62937); assay: Ras-Raf disruption/FRET/MOA assay, NRAS WT; assay type: biochemical; settings: read-out: NRAS WT FRET IC50
Chain of NRAS WT (P01111 whole entry): as the sequence (P01111 whole entry) above
Chain of NRAS WT (P62937 whole entry): as the sequence (P62937 whole entry, the tested form may be a part) above
Text: as §6, §7, §4
as §5, with “12.5 nM,” for “12.5 nM”, “of anti-His” for “of Anti-His”

NRAS Q61K = NRAS Q61K (Homo sapiens (Human), UniProt P01111+P62937, Q61K); assay: Ras-Raf disruption/FRET/MOA assay, NRAS Q61K; assay type: biochemical; settings: read-out: NRAS Q61K FRET data IC50
Chain of NRAS Q61K (P01111 whole entry Q61K): as the sequence (P01111 whole entry) above, with Q61K counted along it
Chain of NRAS Q61K (P62937 whole entry): as the sequence (P62937 whole entry, the tested form may be a part) above
Text: as §6, §7, §4
as §5, with “12.5 nM,” for “12.5 nM”, “of anti-His” for “of Anti-His”

Chain of NRAS G12C binding to BRAF RBD (P01111 whole entry G12C): as the sequence (P01111 whole entry) above, with G12C counted along it
Chain of NRAS G12C binding to BRAF RBD (P62937 whole entry): as the sequence (P62937 whole entry, the tested form may be a part) above

| Compound | IC50 [1] [µM] | IC50 [2] [µM] | IC50 (NCI-H358 (K-Ras G12C)) [µM] | IC50 [3] [µM] | IC50 [4] [µM] | IC50 [5] [µM] | IC50 [6] [µM] | EC50 [7] [µM] | IC50 [8] [µM] | IC50 [9] [µM] | IC50 [10] [µM] | IC50 [11] [µM] | IC50 (NRAS Q61R) [µM] | IC50 (NRAS WT) [µM] | IC50 (NRAS Q61K) [µM] |
| --- | --- | --- | --- | --- | --- | --- | --- | --- | --- | --- | --- | --- | --- | --- | --- |
| C=CC(=O)N(C)CC1CCN(C(=O)N(C)[C@H](C(=O)N[C@H]2Cc3nc(cs3)-c3ccc4c(c3)c(c(-c3cccnc3[C@H](C)OC)n4CC)CC(C)(C)COC(=O)[C@@H]3CCCN(N3)C2=O)C(C)C)CC1 (atropisomer, axis not shown) [Compound A629] | 0.01 to 0.1 | 0.01 to 0.1 | < 0.01 | 0.01 to 0.1 | 0.01 to 0.1 | 0.01 to 0.1 | 0.01 to 0.1 | < 5 | 0.01 to 0.1 | 0.01 to 0.1 | 0.1 to 1 | 0.01 to 0.1 |  |  |  |
| CCn1c(-c2cccnc2[C@H](C)OC)c2c3cc(ccc31)-c1cc(O)cc(c1)C[C@H](NC(=O)[C@H](C(C)C)N(C)C(=O)[C@H]1CCCN(C(=O)[C@@H]3CN3)C1)C(=O)N1CCC[C@H](N1)C(=O)OCC(C)(C)C2 (atropisomer, axis not shown) [Example 238] |  |  |  |  |  |  |  |  |  |  |  |  | 0.1 to 1 | 0.01 to 0.1 | 0.1 to 1 |
